Assay results from US20260226100A1, “Compound - Diagnostic Marker For Biliary Tract Cancer, Method For Detecting Enzymatic Activity, Method For Diagnosis Of Biliary Tract Cancer, Kit Comprising The Compound, Uses Of The Compound And Method For The Treatment Of Biliary Tract Cancer” (Urteste S.A., priority 2023, published 2026).
Where “and” joins values, the source holds several entries; their conditions need not be identical. Identical values can stand only once. *1 amine or outer side, *2 acyl side, *3 side chain or, on linkers, in order; H or OH if unused. Where no end group is shown, it is not given here. [ ]: non-standard residue; d: D form. Benzoyl(5-NH,2-NO2) = O=C(c1cc(N[*:1])ccc1[N+](=O)[O-])[*:2]; 2Abz = Nc1ccccc1C(=O)O

Key:
Format in all cases: biochemical, human
[1] = test system: proteolytic enzymes in urine from a subject suffering from biliary tract cancer; experiment: Absorbance measurement of substrate hydrolysis in urine from subjects with biliary tract cancer; conditions: for absorbance: 405 nm, pH 8.0, 37° C., 60 minutes, triplicate
Experimental: (§1) The activity of the novel compounds according to the invention was studied in a group of 20 subjects diagnosed with biliary tract cancer using the representative compound according to the invention. […] The remaining compounds according to the invention are characterized by the analogous mechanism of action. For this purpose, the representative compound according to the invention, ABZ^1-Glu^2-Arg^3-Arg^4-Ala^5-NH2, was dissolved in dimethyl sulfoxide (at a concentration of 0.5 mg/mL) and then 50 L of the solution was mixed with 120 L of a buffer (200 mM Tris-HCl, pH 8.0) and 80 L of urine from a subject suffering from biliary tract cancer. The measurement was performed on a 96-well plate designed for measuring absorbance and each sample was analysed in triplicate at the temperature of 37° C. The duration of the measurement was 60 minutes. During the measurement, the wavelength characteristic for the chromophore (ANB-NH2) being released was monitored at the wavelength 405 nm (range 380-430 nm).
The observed magnitude of increase in absorbance in time is different for each of the examined samples.
Such a result may be due to the difference in the activity as well as the amount of enzymes responsible for the enzymatic cleavage (proteolysis). […] The result indicates the absence of proteolytic enzymes specific/characteristic of biliary tract cancer.

[2] = test system: urine samples taken from healthy persons; experiment: Absorbance measurement of substrate hydrolysis in urine from healthy subjects; conditions: for absorbance: 405 nm, pH 8.0, 37° C., 60 minutes, triplicate
[3] = test system: urine samples from subjects with biliary tract cancer or another neoplastic disease; experiment: Selectivity of substrate cleavage in urine of patients with different cancer types; conditions: urine of patients with testicle, large intestine, kidney, prostate, pancreas, liver, lung, ovarian and rectum cancer
Source text: The samples tested for each type of cancer were derived from 20 different patients for each of the tested cancers. The results are mean values for given cancer types.
as §1
Furthermore, the dependence of the cleavage selectivity of the substrate, i.e. the compound according to the invention, on the cancer type being examined, was studied. […]

In the case of “ABZ-Glu-Arg-Arg-Ala-ANB-NH2 ([2Abz]ERRA-{Benzoyl(5-NH,2-NO2)-NH2})”, the “cleavage of the substrate” value ([1]; all urine samples 1-13 from persons suffering from biliary tract cancer) was “underwent cleavage”, the absorbance ([1]; urine sample 1, biliary tract cancer) was 0.004 and 0.002 and 0.003 and the absorbance ([1]; urine sample 2, biliary tract cancer) was 0.0068 and 0.0034 and 0.0053. For the same substance, the absorbance ([1]; urine sample 3, biliary tract cancer) was 0.0035 and 0.005 and 0.0048, the absorbance ([1]; urine sample 4, biliary tract cancer) was 0.004 and 0.0067 and 0.0051 and the absorbance ([1]; urine sample 6, biliary tract cancer) was 0.002 and 0.0021 and 0.0026. For the same substance, the absorbance ([1]; urine sample 7, biliary tract cancer) was 0.084 and 0.092 and 0.087, the absorbance ([1]; urine sample 8, biliary tract cancer) was 0.0746 and 0.0948 and 0.084 and the absorbance ([1]; urine sample 9, biliary tract cancer) was 0.053 and 0.0458 and 0.0497. The absorbance ([1]; urine sample 10, biliary tract cancer) was 0.0436 and 0.035 and 0.041, the absorbance ([1]; urine sample 11, biliary tract cancer) was 0.0051 and 0.0041 and 0.0048 and the absorbance ([1]; urine sample 12, biliary tract cancer) was 0.0025 and 0.0028 and 0.0032. For the same substance, the absorbance ([1]; urine sample 13, biliary tract cancer) was 0.0046 and 0.005 and 0.0047, the absorbance ([2]; urine sample 14, healthy subject) was 0.000000 and the absorbance ([2]; urine sample 15, healthy subject) was 0.000000. The absorbance ([2]; urine sample 16, healthy subject) was 0.000000, the absorbance ([2]; urine sample 17, healthy subject) was 0.000000 and the absorbance ([2]; urine sample 18, healthy subject) was 0.000000. It also gave an absorbance ([2]; urine sample 19, healthy subject) of 0.000000, an absorbance ([2]; urine sample 20, healthy subject) of 0.000000 and an absorbance ([2]; urine sample 21, healthy subject) of 0.000000. For the same substance, the absorbance ([2]; urine sample 22, healthy subject) was 0.000000, the absorbance ([2]; urine sample 23, healthy subject) was 0.000000 and the “increase in absorbance / hydrolysis” value ([2]; urine samples 14 to 23 from healthy persons) was “does not lead to an increase in absorbance”. The “cleavage of the substrate / increase in absorbance” value [3] was “is not subject to cleavage”.
